Measurements reported in ChEMBL document CHEMBL1154674, “Synthesis and evaluation of three 18F-labeled aminophenylbenzothiazoles as amyloid imaging agents” (J Med Chem, 2009).

Legend:
Type in all cases: ADME, organism-based, Macaca mulatta
[1] = Drug level in normal rhesus monkey thalamus assessed as standard uptake value at 109.4 MBq, iv after 93 mins by microPET; settings: in vivo, 1.55 h
[2] = Drug level in normal rhesus monkey white matter assessed as standard uptake value at 109.4 MBq, iv after 87 mins by microPET; settings: in vivo, 1.45 h
[3] = Drug level in normal rhesus monkey frontal cortex assessed as standard uptake value at 109.4 MBq, iv after 117 mins by microPET; settings: in vivo, 1.95 h
[4] = Drug level in normal rhesus monkey pons assessed as standard uptake value at 81.2 MBq, iv after 3.5 mins by microPET; settings: in vivo
[5] = Drug level in normal rhesus monkey frontal cortex assessed as standard uptake value at 81.2 MBq, iv after 14 mins by microPET; settings: in vivo
[6] = Drug level in normal rhesus monkey pons assessed as standard uptake value at 152.9 MBq, iv after 8 mins by microPET; settings: in vivo
[7] = Drug level in normal rhesus monkey frontal cortex assessed as standard uptake value at 96.3 MBq, iv after 6 mins by microPET; settings: in vivo, 0.1 h
[8] = Drug level in normal rhesus monkey white matter assessed as standard uptake value at 96.3 MBq, iv after 57.5 mins by microPET; settings: in vivo

## Nc1ccc2nc(-c3ccc([18F])cc3)sc2c1
[1]
  SUV: 5.05
[2]
  SUV: 3.65
[3]
  SUV: 4.28

## CNc1ccc2nc(-c3ccc([18F])cc3)sc2c1
[4]
  SUV: 4.503
[5]
  SUV: 6.096

## [11CH3]Nc1ccc(-c2nc3ccc(O)cc3s2)cc1 [PITTSBURGH COMPOUND B]
[6]
  SUV: 2.153

## CN(C)c1ccc2nc(-c3ccc([18F])cc3)sc2c1
[7]
  SUV: 1.97
[8]
  SUV: 1.37
